Assay type in all cases: cell-based
The target in experiment [1] is T1, F508del (Homo sapiens, UniProt P13569, DEL508-508).
T1 construct: expressed in transfected cells
The experiment in a line: 3T3 assay: membrane potential optical assay for F508del correction. Particulars: F508del NIH 3T3 cells; for Emax: NIH3T3, compared to lumacaftor in combination with acutely added 300 nM Ivacaftor, read-out: 3T3 Max Activity; for EC50: 18-24 hours at 37° C., forskolin, acutely added 300 nM Ivacaftor. From the text:
1. Membrane Potential Optical Methods for Assaying F508del Modulation Properties of Compounds
The assay utilizes fluorescent voltage sensing dyes to measure changes in membrane potential using a fluorescent plate reader (e.g., FLIPR III, Molecular Devices, Inc.) as a readout for increase in functional F508del in NIH 3T3 cells. The driving force for the response is the creation of a chloride ion gradient in conjunction with channel activation by a single liquid addition step after the cells have previously been treated with compounds and subsequently loaded with a voltage sensing dye.
2. Identification of Corrector Compounds
To identify correctors of F508del, a single-addition HTS assay format was developed. This HTS assay utilizes fluorescent voltage sensing dyes to measure changes in membrane potential on the FLIPR III as a measurement for increase in gating (conductance) of F508del in F508del NIH 3T3 cells. The F508del NIH 3T3 cell cultures were incubated with the corrector compounds at a range of concentrations for 18-24 hours at 37° C., and subsequently loaded with a redistribution dye. The driving force for the response is a Cl^− ion gradient in conjunction with channel activation with forskolin in a single liquid addition step using a fluorescent plate reader such as FLIPR III.
Bath Solution #1: (in mM) NaCl 160, KCl 4.5, CaCl2) 2, MgCl2 1, HEPES 10, pH 7.4 with NaOH.
Chloride-free bath solution: Chloride salts in Bath Solution #1 (above) are substituted with gluconate salts.
NIH3T3 mouse fibroblasts stably expressing F508del are used for optical measurements of membrane potential. The cells are maintained at 37° C. in 5% CO2 and 90% humidity in Dulbecco's modified Eagle's medium supplemented with 2 mM glutamine, 10% fetal bovine serum, 1× NEAA, b-ME, 1×pen/strep, and 25 mM HEPES in 175 cm^2 culture flasks. For all optical assays, the cells were seeded at ˜20,000/well in 384-well Matrigel-coated plates. For the correction assays, the cells are cultured at 37° C. with and without compounds for 16-24 hours.

Experiment [2] concerns the target T2, CFTR (Homo sapiens, UniProt P13569). The experiment in a line: Membrane potential dye, Enteroid Assay A. As to conditions: for Ent. A Max Activity: chloride transport as % of triple combination control (Enteroid Assay A); for EC50: read-out: Ent. A EC50. Summed up: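 Human intestinal enteroids incubated 18-24 h at 37 °C with test compound, then loaded with 20 μM methyl oxonol (with CaCC inhibitors). Chloride transport triggered in chloride-free buffer with 10 μM forskolin, 100 μM IBMX, 300 nM Compound III; fluorescence read 15 min, expressed as % of a triple-combination corrector/potentiator control.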

Experiment [3] concerns the target T2, CFTR. Description: Membrane potential dye, Enteroid Assay B. As to conditions: for EC50: read-out: Ent. B EC50. Summed up:
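Human intestinal enteroids were treated with compound in maintenance medium for 18-24 h at 37° C, then loaded with methyl oxonol membrane-potential dye (25 min, room temperature). Chloride transport was triggered in chloride-free buffer with 10 μM forskolin, 100 μM IBMX and 300 nM Compound III, fluorescence read 15 min; expressed as % of triple-combination control.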

Where [4] appears, read: Table 7, human enteroid cells, 18-24 hours, acute 10 μM forskolin and 300 nM ivacaftor.
[5] abbreviates: Table 6, human enteroid cells, 18-24 hours, acute 10 μM forskolin and 300 nM ivacaftor.

Structures are written as SMILES. Where two headings read alike, the source gives them in different places. Where only a bound is given, the exact number is not on record here.

What is called EC50 is the concentration at which the effect is half-maximal.

T2 sequence (P13569 with tags, fused parts or gaps DEL508-508): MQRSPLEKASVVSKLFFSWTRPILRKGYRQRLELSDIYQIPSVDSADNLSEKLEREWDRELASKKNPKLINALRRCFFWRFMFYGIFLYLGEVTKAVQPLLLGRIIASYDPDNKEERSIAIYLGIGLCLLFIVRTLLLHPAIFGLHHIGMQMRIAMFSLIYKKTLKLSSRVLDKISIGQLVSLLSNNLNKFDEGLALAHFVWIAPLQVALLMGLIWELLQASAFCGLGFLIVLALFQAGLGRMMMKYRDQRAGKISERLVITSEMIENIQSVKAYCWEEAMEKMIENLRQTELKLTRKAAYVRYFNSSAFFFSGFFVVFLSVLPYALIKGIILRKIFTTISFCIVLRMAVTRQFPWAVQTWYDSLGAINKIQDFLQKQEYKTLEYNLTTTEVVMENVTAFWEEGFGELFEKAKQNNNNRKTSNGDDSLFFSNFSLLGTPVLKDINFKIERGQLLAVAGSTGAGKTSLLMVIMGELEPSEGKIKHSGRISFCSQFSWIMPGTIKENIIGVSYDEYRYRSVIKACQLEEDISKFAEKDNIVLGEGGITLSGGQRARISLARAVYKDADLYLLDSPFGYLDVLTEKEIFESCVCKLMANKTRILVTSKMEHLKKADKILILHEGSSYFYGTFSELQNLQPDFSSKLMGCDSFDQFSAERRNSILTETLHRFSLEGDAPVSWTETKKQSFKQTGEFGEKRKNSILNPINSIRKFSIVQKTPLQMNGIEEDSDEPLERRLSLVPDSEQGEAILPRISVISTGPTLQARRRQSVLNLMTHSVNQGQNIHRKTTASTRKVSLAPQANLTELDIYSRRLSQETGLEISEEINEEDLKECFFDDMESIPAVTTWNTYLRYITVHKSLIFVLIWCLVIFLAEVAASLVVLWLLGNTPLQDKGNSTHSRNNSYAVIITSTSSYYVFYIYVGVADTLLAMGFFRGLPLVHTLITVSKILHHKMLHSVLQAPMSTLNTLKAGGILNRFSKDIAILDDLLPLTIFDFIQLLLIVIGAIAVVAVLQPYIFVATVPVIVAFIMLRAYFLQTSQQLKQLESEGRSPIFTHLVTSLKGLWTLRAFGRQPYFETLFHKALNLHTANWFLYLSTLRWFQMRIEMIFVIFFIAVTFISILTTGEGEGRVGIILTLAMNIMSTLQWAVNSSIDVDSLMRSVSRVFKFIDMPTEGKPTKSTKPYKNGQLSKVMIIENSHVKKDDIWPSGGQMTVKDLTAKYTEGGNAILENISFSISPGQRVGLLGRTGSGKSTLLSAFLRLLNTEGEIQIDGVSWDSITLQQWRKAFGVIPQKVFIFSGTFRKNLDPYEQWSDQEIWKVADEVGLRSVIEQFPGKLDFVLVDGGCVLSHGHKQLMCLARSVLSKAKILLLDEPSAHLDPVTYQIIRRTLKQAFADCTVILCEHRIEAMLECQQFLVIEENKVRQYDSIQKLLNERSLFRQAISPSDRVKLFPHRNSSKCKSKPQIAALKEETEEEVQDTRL
T1 sequence (P13569 with tags, fused parts or gaps DEL508-508): as above

For `Cc1cccc(C)c1-c1cc2nc(n1)NS(=O)(=O)c1cccc(c1)CN(Cc1cnn(-c3ccccc3)c1C)[C@H](CC(C)C)CO2` [Compound 1026], in experiment [1] (Table 7), the Emax is over 60% and the EC50 is under 1000 nM. Moreover, the “Ent. A Max Activity” value in experiment [2] (Table 7) is listed as “+++ (+++ is >60%)”. Further, the half-maximal effective concentration (EC50) in experiment [2] (setting [4]) is under 1000 nM.
As to `Cc1cccc(C)c1-c1cc2nc(n1)NS(=O)(=O)c1cccc(c1)C(=O)N(CCC1CCOCC1)[C@H](CC(C)C)CO2` [Compound 79, (11R)-6-(2,6-Dimethylphenyl)-11-isobutyl-2,2-dioxo-12-(2-tetrahydropyran-4-ylethyl)-9-oxa-2λ^6-thia-3,5,12,19-tetrazatricyclo[12.3.1.14,8]nonadeca-1(18),4(19),5,7,14,16-hexaen-13-one], in experiment [1] (Table 6), the Emax is over 60%. The EC50 in experiment [1] (Table 6) and in experiment [2] (setting [5]) was under 1000 nM each time. Also, in experiment [2] (Table 6), the “Ent. A Max Activity” value was “+++ (+++ is >60%)”.
As for `Cc1cccc(C)c1-c1cc2nc(n1)NS(=O)(=O)c1cccc(c1)CN(CCC1(C(F)(F)F)CC1)[C@H](CC(C)C)CO2` [Compound 1024], in experiment [1] (Table 7), the Emax was over 60% and the EC50 is under 1000 nM. In addition, in experiment [2] (Table 7), the “Ent. A Max Activity” value is “++ (++ is 30-60%)”. In addition, the EC50 in experiment [2] (setting [4]) was under 1000 nM.
Turning to `Cc1cccc(C)c1-c1cc2nc(n1)NS(=O)(=O)c1cccc(c1)CN(CCC(F)(F)F)[C@H](CC(C)C)CO2` [Compound 1021], in experiment [1] (Table 7), the Emax was over 60% and the EC50 was under 1000 nM. Besides, the “Ent. A Max Activity” value in experiment [2] (Table 7) was “++ (++ is 30-60%)”. In experiment [2] (setting [4]), the EC50 is under 1000 nM.
As for `Cc1cccc(C)c1-c1cc2nc(n1)NS(=O)(=O)c1cccc(c1)C(=O)N(Cc1ccc(C#N)cc1)[C@H](CC(C)C)CO2` [Compound 78, 4-[[(11R)-6-(2,6-Dimethylphenyl)-11-isobutyl-2,2,13-trioxo-9-oxa-2λ^6-thia-3,5,12,19-tetrazatricyclo[12.3.1.14,8]nonadeca-1(18),4(19),5,7,14,16-hexaen-12-yl]methyl]benzonitrile], the Emax in experiment [1] (Table 6) is over 60%. The EC50 in experiment [1] (Table 6) and in experiment [2] (setting [5]) was under 1000 nM throughout. Besides, the “Ent. A Max Activity” value in experiment [2] (Table 6) was “+++ (+++ is >60%)”.
As for `CNC(=O)c1ccc(CN2C(=O)c3cccc(c3)S(=O)(=O)Nc3nc(cc(-c4c(C)cccc4C)n3)OC[C@H]2CC(C)C)cc1` [Compound 419], in experiment [1] (Table 6), the Emax was over 60%. Besides, the EC50 in experiment [1] (Table 6) and in experiment [2] (setting [5]) was under 1000 nM throughout. Also, the “Ent. A Max Activity” value in experiment [2] (Table 6) was “+++ (+++ is >60%)”.
`Cc1cccc(C)c1-c1cc2nc(n1)NS(=O)(=O)c1cccc(c1)C(=O)N(CCC(C)(C)C)C(C(F)(F)F)CO2` (stereo not drawn) [Compound 373]: in experiment [1] (Table 7), the Emax was over 60% and the concentration for a half-maximal effect (EC50) lay within 1000 to 3000 nM.
As for `Cc1cccc(C)c1-c1cc2nc(n1)NS(=O)(=O)c1cccc(c1)C(=O)N(Cc1ncccn1)[C@H](CC(C)C)CO2` [Compound 77, (11R)-6-(2,6-Dimethylphenyl)-11-isobutyl-2,2-dioxo-12-(pyrimidin-2-ylmethyl)-9-oxa-2λ^6-thia-3,5,12,19-tetrazatricyclo[12.3.1.14,8]nonadeca-1(18),4(19),5,7,14,16-hexaen-13-one], in experiment [2] (Table 6), the “Ent. A Max Activity” value is given as “+++ (+++ is >60%)”. Besides, the concentration giving a half-maximal response (EC50) in experiment [2] (setting [5]) and in experiment [3] (setting [5]) was under 1000 nM each time. For the same molecule, in experiment [3] (Table 6, chloride transport as % of triple combination control (Enteroid Assay B)), the “Ent. B Max Activity” value is listed as “+++ (+++ is >60%)”.
For the molecule `Cc1cccc(C)c1-c1cc2nc(n1)NS(=O)(=O)c1cccc(c1)C(=O)N(C)C[C@@H](c1ccc(C3CC3)cc1)O2` [Compound 668], in experiment [1] (Table 7), the Emax is over 60% and the EC50 is under 1000 nM.
Take `CCN1C(=O)c2cccc(c2)S(=O)(=O)Nc2nc(cc(-c3c(C)cccc3C)n2)O[C@@H]2CN(C3CC4(CCCC4)C3)C[C@H]21` [Compound 1192, (3R,7R)-19-(2,6-Dimethylphenyl)-8-ethyl-5-{spiro[3.4]octan-2-yl}-2-oxa-15λ^6-thia-5,8,16,18,21-pentaazatetracyclo[15.3.1.110,14.03,7]docosa-1(20),10(22),11,13,17(21),18-hexaene-9,15,15-trione]: in experiment [2] (Table 9), the “Ent. A Max Activity (%)” value is “+++ (+++ is >600%)” and the EC50 is under 1000 nM. For the same molecule, in experiment [3] (Table 9), the “Ent. B Max Activity (%)” value is listed as “++ (++ is 30-60%)” and the concentration giving a half-maximal response (EC50) is under 1000 nM.

The values above are taken from patent US20240150377A1, “MODULATORS OF CYSTIC FIBROSIS TRANSMEMBRANE CONDUCTANCE REGULATOR” (VERTEX PHARMACEUTICALS INCORPORATED, priority 2020, published 2024).
